Measurements from publication PMC9688225, “α-Lipoic Acid Derivatives as Allosteric Modulators for Targeting AMPA-Type Glutamate Receptors’ Gating Modules” (Cells, 2022).
Read-outs that look alike come from different tables or passages of the source.

Key:
Type in all cases: cell-based
[1] = target: T1, GluA1 AMPA receptor subunit (flip isoform) (Homo sapiens, UniProt P42261); test: Whole-cell patch-clamp electrophysiology, homomeric GluA1 expressed in HEK293 cells; details: for Amplitude (glutamate + compound): 10 mM glutamate + 12 µM compound, −60 mV, pH 7.4, 22 °C, mean ± SEM; for Amplitude (glutamate + compound) / A/AI (current with glutamate alone / current with glutamate + compound): n = 10; for A/AI (current with glutamate alone / current with glutamate + compound): 10 mM glutamate, 12 µM compound; for IC50: Hill fit; for t deact (weighted deactivation time constant) / t des (weighted desensitization time constant): glutamate + 12 µM compound; for t deact (weighted deactivation time constant): glutamate alone 2.2±0.1 ms; for t des (weighted desensitization time constant): glutamate alone 2.3±0.1 ms
T1 construct: expressed in transfected cells; host or cells: HEK293
Protocol: (§1) Up to 20 μg of high-copy plasmid DNA was prepared using the QIAGEN Plasmid Mini Kit, the tubes were then centrifuged to extract the supernatant containing the plasmid DNA, ethanol was used to wash the DNA pellet, then centrifuged again and the supernatant was carefully removed as to not disturb the pellet, finally, the pellet was air-dried, and the DNA was re-dissolved in a suitable volume of buffer, (our prior study detailed the whole DNA preparation data). The flip isoform was used in all AMPAR subunits used in this investigation. AMPAR subunits were subcloned in pRK and expressed in the human embryonic kidney cells (HEK293) (The HEK293 cell line was obtained from Sigma, Schnelldorf, Germany). IPA (Integrated Patch Amplifier) recorded HEK293 cells 36–48 h after transfection using the patch-clamp method (Sutter Instruments, Novato, CA, USA). A high-speed piezo solution switcher was installed on a double-barreled glass (theta tube) to provide solutions fast, isolate receptor responses from any network influences, and preserve, as much as possible, the postsynaptic protein machinery. Thus, inhibition was measured by comparing the current recorded when glutamate alone was administered to the current observed when glutamate plus the compound of interest was delivered to the same cell. Before administering the α-LA compounds, experiments were conducted to determine the appropriate concentration to be delivered to the cells without harming them. Dichloromethane (12 µM) effect on GluA1 and GluA2 subunits was tested to ensure that it had no effect on AMPA receptor currents (Figure S8). The effect of α-LA compounds on AMPA subunits plateaued at a concentration of 12 µM because LA inhibits AMPA receptors at low concentrations and continues to inhibit them when LA concentrations are increased by 2 µM each interval, as shown in Figure S1. The concentration increased by 2 µM each time to ensure that no cells were harmed. The cells were washed for 20 s between α-LA derivatives (12 µM), and 10 mM glutamate was supplied alone after each α-LA compound to ensure cell health. Data analysis was carried out using Igor Pro7 (Wave Metrics, inc). For both desensitization (τw des) and deactivation rates (τw deact), an exponential fit to the current decline was obtained at 95% of peak to baseline current. The weighted tau (τw) was calculated as τw = (τf × af) + (τs × as), where af and as are the amplitudes of the fast (τf) and slow (τs) exponential components, respectively. Our study detailed the experimental data set.
(§2) Data are presented as mean ± standard error of the mean (SEM). The number of samples (n = 10) refers to the total number of tested HEK293 cells. Statistical differences between the groups and the wild type were examined by One Way Analysis of Variance (ANOVA), with values of p < 0.05 being considered to indicate statistical significance: (*) p < 0.05, (**) p < 0.01, (***) p < 0.001, ns, not significant. Concentration-response relationships were fitted as composite curves using GraphPad Prism version 6.01 (GraphPad Software, San Diego, CA, USA) to the Hill equation. All results were representative of at least three independent experiments.
(§3) Figure 2 Suppression of AMPA receptor currents by α-LA compounds. Graphs (a,c,e,g) present AMPA receptor currents (pA) before and after the administration of α-LA derivatives on GluA1, GluA1/2, GluA2, and GluA2/3 subunits. While (b,d,f,h) present the ratio A/AI, where A represents the current caused by 10 mM glutamate alone and AI represents the current induced by glutamate + α-LA (12 µM). The whole-cell current was measured at −60 mV, pH 7.4, and 22 °C. A one way analysis of variance (ANOVA) was performed for comparison: *** p < 0.001; ns, not significant. Ten cells were investigated for each LA compound. All values are shown as mean SEM.
(§4) Figure 3 The potency of LA compounds against AMPA receptor subunits. […]

[2] = target: T2, GluA2/3 AMPA receptor subunits (flip isoform) (Homo sapiens, UniProt P42262+P42263); test: Whole-cell patch-clamp electrophysiology, heteromeric GluA2/3 expressed in HEK293 cells; details: for Amplitude (glutamate + compound): 10 mM glutamate + 12 µM compound, −60 mV, pH 7.4, 22 °C, mean ± SEM; for Amplitude (glutamate + compound) / A/AI (current with glutamate alone / current with glutamate + compound): n = 10; for A/AI (current with glutamate alone / current with glutamate + compound): 10 mM glutamate, 12 µM compound; for IC50: Hill fit; for t deact (weighted deactivation time constant) / t des (weighted desensitization time constant): glutamate + 12 µM compound; for t deact (weighted deactivation time constant): glutamate alone 2.4±0.3 ms; for t des (weighted desensitization time constant): glutamate alone 2.7±0.3 ms
T2 construct: expressed in transfected cells; host or cells: HEK293
Protocol: as §1, §2, §3, §4

[3] = target: T3, GluA2 AMPA receptor subunit (flip isoform) (Homo sapiens, UniProt P42262); test: Whole-cell patch-clamp electrophysiology, homomeric GluA2 expressed in HEK293 cells; details: for Amplitude (glutamate + compound): 10 mM glutamate + 12 µM compound, −60 mV, pH 7.4, 22 °C, mean ± SEM; for Amplitude (glutamate + compound) / A/AI (current with glutamate alone / current with glutamate + compound): n = 10; for A/AI (current with glutamate alone / current with glutamate + compound): 10 mM glutamate, 12 µM compound; for IC50: Hill fit; for t deact (weighted deactivation time constant) / t des (weighted desensitization time constant): glutamate + 12 µM compound; for t deact (weighted deactivation time constant): glutamate alone 2.4±0.1 ms; for t des (weighted desensitization time constant): glutamate alone 2.6±0.1 ms
T3 construct: expressed in transfected cells; host or cells: HEK293
Protocol: as §1, §2, §3, §4

[4] = test system: AMPA receptor subunits (GluA1, GluA2, GluA1/2, GluA2/3); test: Whole-cell patch-clamp electrophysiology, summary over the AMPA receptor subunits in HEK293 cells; details: for decrease in the peak current of the AMPARs / increase of the rate of AMPA receptor deactivation (τw deact) / reduction in the rate of desensitization (τw des): all AMPA receptor subunits, 12 µM compound; for IC50: over GluA1, GluA1/2, GluA2, GluA2/3, read-out: approximate IC50 against AMPA receptor subunits
Protocol: as §1, §2
The levels of inhibition of α-LA and its derivatives attracted our attention to assessing the potency of the compounds in a concentration-dependent manner. […] The concentration−inhibition curves were produced by administering glutamate alone at a concentration of 10 mM, followed by glutamate + α-LA derivatives at varying concentrations (in μM) for every recording point. Afterward, the cells were normalized back by administering glutamate alone. Since the glutamate concentration in the synaptic cleft constantly saturates the receptors, driving the response to a near maximum level, variability occurs because the maximum level changes. […]

[5] = target: T4, GluA1/2 AMPA receptor subunits (flip isoform) (Homo sapiens, UniProt P42261+P42262); test: Whole-cell patch-clamp electrophysiology, heteromeric GluA1/2 expressed in HEK293 cells; details: for Amplitude (glutamate + compound): 10 mM glutamate + 12 µM compound, −60 mV, pH 7.4, 22 °C, mean ± SEM; for Amplitude (glutamate + compound) / A/AI (current with glutamate alone / current with glutamate + compound): n = 10; for A/AI (current with glutamate alone / current with glutamate + compound): 10 mM glutamate, 12 µM compound; for IC50: Hill fit; for t deact (weighted deactivation time constant) / t des (weighted desensitization time constant): glutamate + 12 µM compound; for t deact (weighted deactivation time constant): glutamate alone 2.5±0.3 ms; for t des (weighted desensitization time constant): glutamate alone 5.3±0.4 ms
T4 construct: expressed in transfected cells; host or cells: HEK293
Protocol: as §1, §2, §3, §4

[6] = whole-cell normalized peak amplitude, unit printed in the text, not in Table S6, read-out: IC50

T3 sequence (P42262 25-883 isoform P42262-2 limits assumed): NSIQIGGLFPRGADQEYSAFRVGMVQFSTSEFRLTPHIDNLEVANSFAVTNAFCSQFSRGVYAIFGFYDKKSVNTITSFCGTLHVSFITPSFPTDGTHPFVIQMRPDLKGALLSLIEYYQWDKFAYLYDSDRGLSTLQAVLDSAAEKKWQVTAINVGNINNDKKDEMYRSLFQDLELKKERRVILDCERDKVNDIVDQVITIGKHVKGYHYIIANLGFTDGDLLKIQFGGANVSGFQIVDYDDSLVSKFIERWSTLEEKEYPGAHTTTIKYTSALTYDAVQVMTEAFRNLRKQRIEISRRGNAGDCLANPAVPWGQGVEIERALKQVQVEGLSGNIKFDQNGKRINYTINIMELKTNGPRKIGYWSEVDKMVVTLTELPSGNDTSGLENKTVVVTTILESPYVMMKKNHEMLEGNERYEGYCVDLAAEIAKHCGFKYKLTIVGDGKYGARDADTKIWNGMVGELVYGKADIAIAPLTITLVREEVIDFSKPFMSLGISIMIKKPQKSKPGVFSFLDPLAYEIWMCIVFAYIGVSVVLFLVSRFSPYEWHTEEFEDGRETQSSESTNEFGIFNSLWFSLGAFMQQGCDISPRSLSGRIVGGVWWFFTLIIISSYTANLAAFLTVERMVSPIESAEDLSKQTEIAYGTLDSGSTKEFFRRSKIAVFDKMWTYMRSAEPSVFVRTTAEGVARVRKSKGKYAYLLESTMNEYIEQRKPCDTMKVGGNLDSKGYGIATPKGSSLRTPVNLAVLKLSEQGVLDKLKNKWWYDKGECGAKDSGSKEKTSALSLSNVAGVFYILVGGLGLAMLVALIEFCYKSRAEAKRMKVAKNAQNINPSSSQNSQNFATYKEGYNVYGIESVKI
T2 sequence (P42262 25-883 isoform P42262-2 limits assumed): as above
T2 sequence (P42263 29-894 isoform P42263-2 limits assumed): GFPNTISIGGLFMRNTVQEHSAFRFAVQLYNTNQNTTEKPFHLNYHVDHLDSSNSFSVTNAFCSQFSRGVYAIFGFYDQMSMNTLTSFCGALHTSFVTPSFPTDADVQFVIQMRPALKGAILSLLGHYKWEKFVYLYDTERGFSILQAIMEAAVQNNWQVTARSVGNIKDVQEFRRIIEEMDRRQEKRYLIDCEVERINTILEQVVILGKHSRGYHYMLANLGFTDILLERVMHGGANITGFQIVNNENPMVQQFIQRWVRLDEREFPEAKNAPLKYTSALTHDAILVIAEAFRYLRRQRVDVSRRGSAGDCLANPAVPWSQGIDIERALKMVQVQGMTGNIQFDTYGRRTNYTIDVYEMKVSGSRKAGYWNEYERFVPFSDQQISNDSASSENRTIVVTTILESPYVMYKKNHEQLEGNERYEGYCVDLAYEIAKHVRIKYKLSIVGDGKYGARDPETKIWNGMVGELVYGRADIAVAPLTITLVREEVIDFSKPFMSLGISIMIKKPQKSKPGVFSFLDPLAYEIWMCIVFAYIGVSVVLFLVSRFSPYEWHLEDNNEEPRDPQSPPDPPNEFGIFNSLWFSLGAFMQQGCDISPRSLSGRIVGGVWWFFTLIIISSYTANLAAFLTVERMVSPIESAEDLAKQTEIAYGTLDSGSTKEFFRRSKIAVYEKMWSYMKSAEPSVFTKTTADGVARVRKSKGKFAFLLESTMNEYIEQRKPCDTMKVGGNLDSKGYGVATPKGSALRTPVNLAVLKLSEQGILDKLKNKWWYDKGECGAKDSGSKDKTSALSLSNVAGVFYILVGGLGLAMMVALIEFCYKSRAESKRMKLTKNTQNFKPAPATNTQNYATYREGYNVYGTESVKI
T1 sequence (P42261 19-906 isoform P42261-2 limits assumed): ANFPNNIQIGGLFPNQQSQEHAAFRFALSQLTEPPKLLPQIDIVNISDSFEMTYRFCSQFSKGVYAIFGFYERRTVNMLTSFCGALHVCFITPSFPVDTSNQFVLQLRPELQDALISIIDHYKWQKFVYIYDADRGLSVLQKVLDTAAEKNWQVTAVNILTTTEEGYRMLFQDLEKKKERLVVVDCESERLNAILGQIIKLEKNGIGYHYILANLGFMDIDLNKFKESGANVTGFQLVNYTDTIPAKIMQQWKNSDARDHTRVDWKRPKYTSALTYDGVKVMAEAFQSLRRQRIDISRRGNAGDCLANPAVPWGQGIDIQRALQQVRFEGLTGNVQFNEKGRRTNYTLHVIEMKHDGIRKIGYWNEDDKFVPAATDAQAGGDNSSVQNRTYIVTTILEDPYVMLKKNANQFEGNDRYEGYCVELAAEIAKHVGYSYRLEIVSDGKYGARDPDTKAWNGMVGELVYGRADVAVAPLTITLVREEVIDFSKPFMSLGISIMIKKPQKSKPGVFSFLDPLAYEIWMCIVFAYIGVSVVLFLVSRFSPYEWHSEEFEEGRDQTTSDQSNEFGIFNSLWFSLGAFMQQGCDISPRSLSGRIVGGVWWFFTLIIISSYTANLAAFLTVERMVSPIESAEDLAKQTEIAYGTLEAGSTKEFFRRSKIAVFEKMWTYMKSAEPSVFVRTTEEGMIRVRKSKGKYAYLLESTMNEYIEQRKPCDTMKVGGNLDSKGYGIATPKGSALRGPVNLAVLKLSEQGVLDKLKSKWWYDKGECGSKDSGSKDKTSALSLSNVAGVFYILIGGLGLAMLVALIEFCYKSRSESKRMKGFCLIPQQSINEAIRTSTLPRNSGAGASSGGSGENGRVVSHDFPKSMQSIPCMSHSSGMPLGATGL
T4 sequence (P42261 19-906 isoform P42261-2 limits assumed): as above
T4 sequence (P42262 25-883 isoform P42262-2 limits assumed): as the sequence (P42262 25-883 isoform P42262-2 limits assumed) above

| SMILES | Amplitude (glutamate + compound) [1] [pA] | A/AI (current with glutamate alone / current with glutamate + compound) [1] | IC50 ([1]; read-out: Log IC50 (converted)) [µM] | t deact (weighted deactivation time constant) [1] [ms] | t des (weighted desensitization time constant) [1] [ms] | IC50 [1, 6] [µM] | Amplitude (glutamate + compound) [2] [pA] | A/AI (current with glutamate alone / current with glutamate + compound) [2] | IC50 ([2]; read-out: Log IC50 (converted)) [µM] | t deact (weighted deactivation time constant) [2] [ms] | t des (weighted desensitization time constant) [2] [ms] | IC50 [2, 6] [µM] | Amplitude (glutamate + compound) [3] [pA] | A/AI (current with glutamate alone / current with glutamate + compound) [3] | IC50 ([3]; read-out: Log IC50 (converted)) [µM] | t deact (weighted deactivation time constant) [3] [ms] | t des (weighted desensitization time constant) [3] [ms] | IC50 [3, 6] [µM] | decrease in the peak current of the AMPARs [4] | increase of the rate of AMPA receptor deactivation (τw deact) [4] | other results |
| --- | --- | --- | --- | --- | --- | --- | --- | --- | --- | --- | --- | --- | --- | --- | --- | --- | --- | --- | --- | --- | --- |
| O=C(CCCCC1CCSS1)OCCCO (stereo not drawn) [LA1, 1-Hydroxy-3-Lipo Ester] | 89±12.0 | 10.43±0.7 | 3.47 | 9.5 ± 0.5 | 0.8 ± 0.1 | 3.47 | 52±8.0 | 10.14±1.0 | 3.8 | 10.1 ± 0.6 | 1.2 ± 0.09 | 3.8 | 124±19.0 | 10.22±0.8 | 3.63 | 10.4 ± 0.9 | 1.0 ± 0.06 | 3.63 | about 10 fold | about 4 fold | reduction in the rate of desensitization (τw des) [4]: 3–4 fold; IC50 [4]: 3.5 to 3.8 µM; Amplitude (glutamate + compound) [5]: 60±9.0 pA; A/AI (current with glutamate alone / current with glutamate + compound) [5]: 10.32±1.0; IC50 ([5]; read-out: Log IC50 (converted)): 3.55 µM; t deact (weighted deactivation time constant) [5]: 10.1 ± 0.7 ms; t des (weighted desensitization time constant) [5]: 2.8 ± 0.3 ms; IC50 [5, 6]: 3.54 µM |
| O=C(CCCCC1CCSS1)OCCCO[N+](=O)[O-] (stereo not drawn) [LA2, 1-Nitrooxy–propane-3-lipoyl ester] | 79±11.0 | 11.53±0.8 | 3.39 | 11.6 ± 0.7 | 0.6 ± 0.1 | 3.35 | 46±7.0 | 11.03±1.0 | 3.63 | 10.8 ± 0.9 | 0.9 ± 0.09 | 3.61 | 112±17.0 | 11.16±0.7 | 3.55 | 10.9 ± 0.7 | 0.8 ± 0.08 | 3.51 | ~11 fold | approximately 5 fold | reduction in the rate of desensitization (τw des) [4]: 3–4 fold; IC50 [4]: ~3.5 µM; Amplitude (glutamate + compound) [5]: 57±8.0 pA; A/AI (current with glutamate alone / current with glutamate + compound) [5]: 11.34±0.9; IC50 ([5]; read-out: Log IC50 (converted)): 3.39 µM; t deact (weighted deactivation time constant) [5]: 11.1 ± 0.9 ms; t des (weighted desensitization time constant) [5]: 2.7 ± 0.2 ms; IC50 [5, 6]: 3.41 µM |
| O=C(CCCCC1CCSS1)OCCCCCCO[N+](=O)[O-] (stereo not drawn) [LA3, 1-Nitrooxy–Hexane-6-lipoyl ester] | 114±12.0 | 8.13±0.6 | 3.63 | 8.1 ± 0.4 | 1.7 ± 0.1 | 3.59 | 71±14.0 | 7.84±0.9 | 4.47 | 7.6 ± 0.7 | 1.9 ± 0.1 | 4.46 | 155±25 | 7.91±0.7 | 4.37 | 7.7 ± 0.3 | 1.8 ± 0.04 | 4.37 | roughly 8 fold | roughly 3 fold | Amplitude (glutamate + compound) [5]: 81±12.0 pA; A/AI (current with glutamate alone / current with glutamate + compound) [5]: 8.05±0.8; IC50 ([5]; read-out: Log IC50 (converted)): 4.37 µM; t deact (weighted deactivation time constant) [5]: 7.9 ± 0.67 ms; t des (weighted desensitization time constant) [5]: 3.6 ± 0.2 ms; IC50 [5, 6]: 4.33 µM |
| O=C(CCCCC1CCSS1)OCCCCCCO (stereo not drawn) [LA4, 1-Hydroxy-6-Lipoester] | 121±18 | 7.79±0.5 | 4.17 | 7.5 ± 0.3 | 1.8 ± 0.1 | 4.18 | 72±15.0 | 7.58±0.7 | 4.79 | 6.9 ± 0.5 | 2.0 ± 0.1 | 4.76 | 166±28 | 7.65±0.5 | 4.47 | 7.1 ± 0.4 | 1.9 ± 0.07 | 4.47 | roughly 8 fold | roughly 3 fold | Amplitude (glutamate + compound) [5]: 87±13.0 pA; A/AI (current with glutamate alone / current with glutamate + compound) [5]: 7.70±0.7; IC50 ([5]; read-out: Log IC50 (converted)): 4.37 µM; t deact (weighted deactivation time constant) [5]: 7.4 ± 0.4 ms; t des (weighted desensitization time constant) [5]: 3.7 ± 0.3 ms; IC50 [5, 6]: 4.41 µM |
